Our source for the LC50 and EC50 values is ChEMBL document CHEMBL1150209, “(-)-Grandisin form Cryptocarya crassinervia” (J Nat Prod, 1991).

In brackets after ≈: the same amount, converted by molar mass. Where only a bound is given, the exact number is not on record here.

The nature of series [1]: Toxicity against brine shrimp. The format is organism-based. Conditions: artemia, in vivo.
Another series concerns HT-29. Briefly: Cytotoxicity against human HT-29 cells. Type of series: functional. Conditions: read-out: ED50 (the source's name).
Another series has as its system MCF7. The experiment in a line: Cytotoxicity against human MCF7 cells. Type of series: functional. Conditions: read-out: ED50 (the source's name).
Another series has as its system A549. Briefly: Cytotoxicity against human A549 cells. Type of series: functional. Conditions: read-out: ED50 (the source's name).

In series [1], `COc1cc([C@@H]2O[C@@H](c3cc(OC)c(OC)c(OC)c3)[C@H](C)[C@H]2C)cc(OC)c1OC` [GRANDISIN] yielded an LC50 of 21 µg/mL (≈ 48.6 µM). For the same molecule, the EC50 in the series with HT-29, in the series on MCF7 and in the series on A549 was above 10 µg/mL each time.

As a reminder, the LC50 is the concentration lethal to half of the exposed cells or organisms. Read a high LC50 as lower toxicity.
